# Results from the NIST ThermoML archive (doi:10.1021/je060330k).
# ± gives the expanded uncertainty stated by the source.
# Conditions: Liquid, Closed cell (Static) method
smiles,measurement,setting,value
"FCC(F)(F)F [1,1,1,2-tetrafluoroethane]",vapor or sublimation pressure,295.4 K,612 ± 1.3 kPa
same,vapor or sublimation pressure,300 K,704.4 ± 1.5 kPa
same,vapor or sublimation pressure,304 K,788.5 ± 1.6 kPa
